Laboratory results from ChEMBL document CHEMBL1201862, “PubChem BioAssay data set” (2004).
Calls of active or inactive are those of the source.

Legend:
[1] = A Cell Based Secondary Assay To Explore Cytotoxicity of Compounds that Sensitize Mycobacterium Tuberculosis to Beta-Lactam Antibiotics.; type: functional
[2] = tested on: Streptococcus; test: Luminescence Microorganism-Based Dose Response Follow up to Identify Compounds Cytotoxic to Streptococcus. [Related pubchem assays: 1677 (Project Summary), 1915, 1914, 1902 (Retest at Dose), 1900 (Counter Screen), 1662 (Primary HTS)]; type: functional, organism-based
[3] = molecular target: T1, Microphthalmia-associated transcription factor (Homo sapiens, UniProt O75030); test: reducers of TRPM1 reporter luminescence, concentration series – cell-based, SK-MEL-5, cherry-picked, set 3, MITF inhibitor project, dose response (AID 493073); type: functional;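 note: SK-MEL-5 melanoma cells with luciferase driven by the MITF target TRPM1 promoter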
T1 sequence (O75030 whole entry): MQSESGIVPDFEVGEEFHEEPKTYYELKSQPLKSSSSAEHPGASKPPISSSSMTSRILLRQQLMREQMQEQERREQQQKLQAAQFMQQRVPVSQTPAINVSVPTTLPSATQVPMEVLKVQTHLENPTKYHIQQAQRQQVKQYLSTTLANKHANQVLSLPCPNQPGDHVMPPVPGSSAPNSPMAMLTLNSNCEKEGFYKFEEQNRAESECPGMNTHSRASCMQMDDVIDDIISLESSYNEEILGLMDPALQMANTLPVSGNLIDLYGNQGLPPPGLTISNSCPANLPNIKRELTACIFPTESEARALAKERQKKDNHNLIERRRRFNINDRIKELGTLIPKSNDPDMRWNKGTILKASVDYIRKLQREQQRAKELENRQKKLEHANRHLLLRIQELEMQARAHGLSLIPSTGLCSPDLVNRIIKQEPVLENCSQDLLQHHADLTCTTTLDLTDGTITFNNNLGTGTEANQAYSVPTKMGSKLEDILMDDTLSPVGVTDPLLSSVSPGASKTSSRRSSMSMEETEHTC

[4] = molecular target: T2, Protein skinhead-1 (Caenorhabditis elegans, UniProt P34707); type: functional
T2 sequence (P34707 whole entry): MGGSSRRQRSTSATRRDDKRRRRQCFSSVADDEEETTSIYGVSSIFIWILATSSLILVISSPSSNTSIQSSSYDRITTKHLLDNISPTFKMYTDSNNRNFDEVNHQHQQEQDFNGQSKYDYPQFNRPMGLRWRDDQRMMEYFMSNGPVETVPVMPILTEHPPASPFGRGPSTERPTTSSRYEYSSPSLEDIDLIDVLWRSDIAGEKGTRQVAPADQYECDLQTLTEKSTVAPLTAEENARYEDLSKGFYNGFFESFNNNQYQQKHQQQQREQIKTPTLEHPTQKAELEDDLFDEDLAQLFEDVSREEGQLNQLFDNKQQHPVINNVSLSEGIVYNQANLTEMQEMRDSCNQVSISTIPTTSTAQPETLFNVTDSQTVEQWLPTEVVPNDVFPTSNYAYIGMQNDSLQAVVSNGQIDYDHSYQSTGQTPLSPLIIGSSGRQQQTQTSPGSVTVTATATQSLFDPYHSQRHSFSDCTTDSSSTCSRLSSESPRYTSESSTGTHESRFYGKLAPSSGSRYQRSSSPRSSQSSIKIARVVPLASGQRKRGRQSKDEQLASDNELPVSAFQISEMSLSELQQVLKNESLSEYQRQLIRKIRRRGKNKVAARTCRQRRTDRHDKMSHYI

[5] = Luminescence-based counterscreen assay for KLF5 inhibitors: dose response cell-based high throughput screening assay to identify cytotoxic compounds using the IEC-6 intestinal epithelial cell line. [Related pubchem assays: 1700 (Primary screen.), 1834 (Confirmation screen.), 1858 (Summary AID.), 1905 (Counterscreen.)]; type: functional
[6] = reduction of Shn3 3'UTR-driven luciferase in osteoblasts – cell-based, Clone20 osteoblasts, firefly luciferase, cherry-picked, dose response (AID 624132); type: functional;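 note: firefly luciferase luminescence from reporter carrying the Shn3 3'UTR in osteoblasts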
[7] = molecular target: Photoreceptor-specific nuclear receptor (Homo sapiens, UniProt Q9Y5X4); type: functional, cell-based;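 note: CHO-S cells with Gal4-NCOR and VP16-NR2E3 two-hybrid luciferase reporter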
[8] = Shn3 3'UTR reporter signal decrease – cell-based, Clone20 osteoblasts, firefly luciferase, cherry-pick, set 2, Schnurri-3 inhibitor project, dose response (AID 720490); type: functional;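 note: actives lower the luminescence signal as inhibitors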
[9] = loss of viability in HepG2 cells – cell-based, CellTiter-Glo, cherry-picked, cytotoxicity control for Shn3 inhibitor project, dose response (AID 624134); type: functional
[10] = molecular target: T3, Leucine aminopeptidase (Plasmodium falciparum 3D7, UniProt Q8IL11); test: P. falciparum M17LAP inhibitors, primary screen, biochemical, fluorogenic H-Leu-NHMec substrate, 1536-well (AID 1619); type: functional
T3 sequence (Q8IL11 whole entry): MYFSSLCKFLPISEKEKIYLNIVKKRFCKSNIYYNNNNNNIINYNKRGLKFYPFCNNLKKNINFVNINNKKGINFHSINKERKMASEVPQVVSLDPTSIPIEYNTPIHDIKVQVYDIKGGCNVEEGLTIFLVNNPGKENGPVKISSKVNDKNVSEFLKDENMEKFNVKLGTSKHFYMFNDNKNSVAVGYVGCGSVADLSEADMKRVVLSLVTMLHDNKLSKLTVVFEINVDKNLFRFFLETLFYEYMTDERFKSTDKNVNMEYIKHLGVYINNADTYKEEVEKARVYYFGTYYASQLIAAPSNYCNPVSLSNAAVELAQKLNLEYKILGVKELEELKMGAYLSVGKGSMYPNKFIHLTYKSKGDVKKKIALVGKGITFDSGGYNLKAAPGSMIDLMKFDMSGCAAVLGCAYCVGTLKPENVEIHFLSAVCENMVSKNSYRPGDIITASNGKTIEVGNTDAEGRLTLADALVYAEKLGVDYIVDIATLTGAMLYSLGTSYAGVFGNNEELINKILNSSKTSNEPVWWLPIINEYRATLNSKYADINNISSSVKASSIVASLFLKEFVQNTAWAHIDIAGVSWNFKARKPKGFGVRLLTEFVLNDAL

[11] = mitochondrial function rescue without frataxin homolog – Friedreich's ataxia, plus single-dose screen, dose response (AID 1465); type: functional;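 note: yeast depleted of Yfh1p frataxin homolog grown on glycerol needing respiration; WST-1 tetrazolium dye reduction as measure of cellular dehydrogenase metabolic activity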
[12] = molecular target: T4, Insulin-degrading enzyme (Homo sapiens, UniProt P14735); test: Dose Response: Fluorescence polarization-based cell-based high throughput dose response assay for inhibitors of insulin-degrading enzyme (IDE). [Related pubchem assays: 434962 (Primary screen (IDE inhibitors in singlicate)), 449730 (Counterscreen (Cytotoxicity in triplicate)), 435028 (Confirmation (IDE inhibitors in triplicate)), 434984 (Summary …; type: functional
T4 sequence (P14735 whole entry): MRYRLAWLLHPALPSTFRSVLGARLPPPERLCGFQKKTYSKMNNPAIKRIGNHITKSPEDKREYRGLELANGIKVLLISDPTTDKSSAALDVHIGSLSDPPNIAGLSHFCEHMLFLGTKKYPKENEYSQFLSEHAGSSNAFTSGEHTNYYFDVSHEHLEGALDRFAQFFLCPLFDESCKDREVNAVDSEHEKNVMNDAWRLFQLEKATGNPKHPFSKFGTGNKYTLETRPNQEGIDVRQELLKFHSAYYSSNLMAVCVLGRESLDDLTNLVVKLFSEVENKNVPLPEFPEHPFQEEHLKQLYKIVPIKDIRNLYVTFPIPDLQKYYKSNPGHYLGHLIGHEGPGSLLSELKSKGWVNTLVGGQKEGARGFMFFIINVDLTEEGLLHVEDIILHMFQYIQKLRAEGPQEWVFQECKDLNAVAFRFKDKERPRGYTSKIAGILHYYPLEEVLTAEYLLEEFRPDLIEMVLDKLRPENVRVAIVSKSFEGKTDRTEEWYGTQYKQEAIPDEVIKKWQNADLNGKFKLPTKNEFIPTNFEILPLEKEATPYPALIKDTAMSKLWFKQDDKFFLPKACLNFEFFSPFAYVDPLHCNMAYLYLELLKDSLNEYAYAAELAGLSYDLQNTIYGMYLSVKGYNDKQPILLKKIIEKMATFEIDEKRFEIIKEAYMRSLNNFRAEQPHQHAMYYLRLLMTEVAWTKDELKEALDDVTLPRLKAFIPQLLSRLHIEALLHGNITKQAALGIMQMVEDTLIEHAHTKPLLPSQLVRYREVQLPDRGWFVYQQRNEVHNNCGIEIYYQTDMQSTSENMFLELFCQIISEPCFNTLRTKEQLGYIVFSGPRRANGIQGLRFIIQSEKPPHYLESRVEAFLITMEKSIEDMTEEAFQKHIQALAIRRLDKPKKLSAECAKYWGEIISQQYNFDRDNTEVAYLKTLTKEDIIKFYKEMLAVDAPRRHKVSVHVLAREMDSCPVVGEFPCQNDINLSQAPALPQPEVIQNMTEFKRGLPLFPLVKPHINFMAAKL

[13] = Counterscreen for IDE inhibitors: Luminescence-based cell-based high throughput dose response assay to identify compounds that are cytotoxic to HEK cells. [Related pubchem assays: 434962 (Primary screen (IDE inhibitors in singlicate)), 449730 (Counterscreen (Cytotoxicity in triplicate)), 435028 (Confirmation (IDE inhibitors in triplicate)) …; type: functional; settings: HEK293
[14] = molecular target: Muscarinic acetylcholine receptor M3 (Homo sapiens, UniProt P20309); test: (§1) Discovery of novel allosteric modulators of the M1 muscarinic receptor: Agonist NMS competition at M3. [Related pubchem assays: 1488 (Discovery of novel allosteric modulators of the M1 muscarinic receptor: Agonist Confirmation Assay), 626 (Discovery of Novel Allosteric Modulators of the M1 Muscarinic Receptor: Agonist Primary Screen)]; type: functional
[15] = molecular target: Muscarinic acetylcholine receptor M2 (Homo sapiens, UniProt P08172); test: Discovery of novel allosteric modulators of the M1 muscarinic receptor: Agonist NMS competition at M2. [Related pubchem assays: 626 (Discovery of Novel Allosteric Modulators of the M1 Muscarinic Receptor: Agonist Primary Screen), 1488 (Discovery of novel allosteric modulators of the M1 muscarinic receptor: Agonist Confirmation Assay)]; type: functional
[16] = molecular target: Muscarinic acetylcholine receptor M4 (Rattus norvegicus, UniProt P08485); test: Discovery of novel allosteric modulators of the M1 muscarinic receptor: Agonist NMS competition at M4. [Related pubchem assays: 626, 1488, 1741 ]; type: functional
[17] = molecular target: Muscarinic acetylcholine receptor M1 (Rattus norvegicus, UniProt P08482); test: Discovery of novel allosteric modulators of the M1 muscarinic receptor: Agonist NMS binding at M1. [Related pubchem assays: 626 ]
[18] = molecular target: Muscarinic acetylcholine receptor M5 (Homo sapiens, UniProt P08912); test: as §1, with “M5.” for “M3.”; type: functional
[19] = viability loss of HPDE-C7K cells – cell-based, fluorescence, HTS, primary screen (AID 431); type: functional; settings: Homo sapiens
[20] = antiviral protection against BTV-induced cell death – arbovirus, BSR cells, confirmation (AID 1250); type: functional;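 note: protection from viral cytopathic effect measured as cell viability by ATP luminescence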
[21] = tested on: Streptococcus sp. 'group A'; test: Streptococcus pyogenes SK(-)GAS viability under kanamycin – luminescence, BacTiterGlo, confirmation, counter-screen for streptokinase expression inhibitor project, dose response (AID 1900); type: functional, organism-based
[22] = HPDE-C7 pancreatic duct cell viability loss – fluorescence, HTS (AID 430); type: functional, cell-based; settings: Homo sapiens
[23] = tested on: Streptococcus; test: GAS UMAA2166 growth inhibition – luminescence, BacTiterGlo, counter-screen for streptokinase expression inhibitor project, dose response (AID 1915); type: functional, organism-based;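 note: potency for reduction of bacterial viability or growth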
[24] = alpha-synuclein stem-loop luciferase translation blockers – H4 neuroglioma cells, luminescence, confirmation (AID 1988); type: functional, cell-based
[25] = molecular target: NS3 (Hepatitis C virus, UniProt A3EZJ3); test: PubChem AID 2173; design: species or system Hepacivirus hominis
[26] = luciferase reporter signal suppression in cells – H4 neuroglioma cells, luminescence, dose response (AID 1990); type: functional, cell-based
[27] = Luminescence Cell-Based Dose Response HTS to Identify Inhibitors of 5'UTR Stem-Loop Driven Prion Protein mRNA Translation in H4 Neuroglioblastoma Cells. [Related pubchem assays: 1827 (Project Summary), 1813 (Primary HTS)]; type: functional
[28] = viability loss in Vero cells – cytotoxicity control for Vif-APOBEC3G degradation inhibitor project, dose response (AID 1117358); type: functional; settings: Vero
[29] = molecular target: Cytochrome P450 2D6 (Homo sapiens, UniProt P10635); test: qHTS Assay for Inhibitors and Substrates of Cytochrome P450 2D6. [Related pubchem assays: 410 ]; type: ADME; settings: read-out: Potency
Sequence of Cytochrome P450 2D6 (P10635 whole entry): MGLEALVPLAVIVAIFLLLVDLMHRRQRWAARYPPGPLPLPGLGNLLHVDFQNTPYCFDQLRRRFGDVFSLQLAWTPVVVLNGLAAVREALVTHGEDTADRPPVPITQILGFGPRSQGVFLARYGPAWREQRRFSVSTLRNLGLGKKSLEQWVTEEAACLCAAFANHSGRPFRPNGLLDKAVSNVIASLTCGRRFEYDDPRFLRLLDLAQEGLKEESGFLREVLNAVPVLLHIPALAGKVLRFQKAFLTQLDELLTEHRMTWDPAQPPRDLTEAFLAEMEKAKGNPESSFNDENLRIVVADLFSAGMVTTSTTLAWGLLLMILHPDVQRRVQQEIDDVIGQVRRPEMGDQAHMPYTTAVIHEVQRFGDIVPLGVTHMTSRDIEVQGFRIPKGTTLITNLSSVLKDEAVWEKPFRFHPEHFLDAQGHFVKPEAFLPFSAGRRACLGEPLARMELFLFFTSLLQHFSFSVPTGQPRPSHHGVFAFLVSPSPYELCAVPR

Sequence of NS3 (A3EZJ3 whole entry): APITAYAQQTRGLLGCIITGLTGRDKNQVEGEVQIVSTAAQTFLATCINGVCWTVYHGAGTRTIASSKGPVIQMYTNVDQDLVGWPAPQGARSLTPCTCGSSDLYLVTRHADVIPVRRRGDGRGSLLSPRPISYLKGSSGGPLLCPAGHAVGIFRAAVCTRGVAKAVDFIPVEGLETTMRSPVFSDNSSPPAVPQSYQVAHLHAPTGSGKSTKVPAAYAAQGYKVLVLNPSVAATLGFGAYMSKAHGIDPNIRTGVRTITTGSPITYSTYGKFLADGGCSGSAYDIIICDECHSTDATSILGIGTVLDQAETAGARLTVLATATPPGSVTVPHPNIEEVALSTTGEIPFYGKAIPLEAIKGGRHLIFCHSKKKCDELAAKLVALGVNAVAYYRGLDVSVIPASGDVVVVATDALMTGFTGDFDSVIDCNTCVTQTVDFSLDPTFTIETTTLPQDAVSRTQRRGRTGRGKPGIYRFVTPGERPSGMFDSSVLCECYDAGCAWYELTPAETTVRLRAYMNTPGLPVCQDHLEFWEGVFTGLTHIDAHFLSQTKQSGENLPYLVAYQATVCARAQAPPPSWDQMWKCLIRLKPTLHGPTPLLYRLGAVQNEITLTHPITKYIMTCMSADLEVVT
Sequence of Muscarinic acetylcholine receptor M4 (P08485 whole entry): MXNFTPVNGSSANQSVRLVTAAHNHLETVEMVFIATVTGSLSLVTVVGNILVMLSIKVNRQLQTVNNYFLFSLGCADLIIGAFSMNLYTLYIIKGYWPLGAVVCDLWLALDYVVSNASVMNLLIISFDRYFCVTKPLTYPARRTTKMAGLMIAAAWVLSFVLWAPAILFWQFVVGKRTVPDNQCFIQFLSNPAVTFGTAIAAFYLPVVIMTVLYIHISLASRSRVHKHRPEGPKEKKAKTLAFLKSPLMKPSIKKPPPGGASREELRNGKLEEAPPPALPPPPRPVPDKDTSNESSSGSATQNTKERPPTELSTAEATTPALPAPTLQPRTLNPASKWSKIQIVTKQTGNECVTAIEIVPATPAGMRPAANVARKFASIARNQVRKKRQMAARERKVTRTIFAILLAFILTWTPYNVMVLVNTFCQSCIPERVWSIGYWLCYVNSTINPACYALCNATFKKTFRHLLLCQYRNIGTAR
Sequence of Muscarinic acetylcholine receptor M3 (P20309 whole entry): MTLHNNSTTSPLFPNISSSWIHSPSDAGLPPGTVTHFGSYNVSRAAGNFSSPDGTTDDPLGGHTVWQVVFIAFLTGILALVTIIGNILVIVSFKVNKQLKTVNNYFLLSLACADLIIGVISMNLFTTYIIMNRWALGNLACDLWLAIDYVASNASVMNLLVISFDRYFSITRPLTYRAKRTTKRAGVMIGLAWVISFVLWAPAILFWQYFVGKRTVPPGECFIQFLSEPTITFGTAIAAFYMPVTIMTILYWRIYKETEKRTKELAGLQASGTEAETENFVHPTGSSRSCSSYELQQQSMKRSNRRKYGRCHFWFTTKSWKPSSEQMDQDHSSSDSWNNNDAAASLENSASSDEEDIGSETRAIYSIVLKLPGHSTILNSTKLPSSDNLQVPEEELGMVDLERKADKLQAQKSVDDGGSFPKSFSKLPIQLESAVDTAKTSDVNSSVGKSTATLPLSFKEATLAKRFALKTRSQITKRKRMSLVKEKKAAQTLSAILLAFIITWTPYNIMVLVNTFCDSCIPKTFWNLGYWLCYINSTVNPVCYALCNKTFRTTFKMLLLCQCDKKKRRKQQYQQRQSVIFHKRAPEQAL
Sequence of Photoreceptor-specific nuclear receptor (Q9Y5X4 whole entry, the tested form may be a part): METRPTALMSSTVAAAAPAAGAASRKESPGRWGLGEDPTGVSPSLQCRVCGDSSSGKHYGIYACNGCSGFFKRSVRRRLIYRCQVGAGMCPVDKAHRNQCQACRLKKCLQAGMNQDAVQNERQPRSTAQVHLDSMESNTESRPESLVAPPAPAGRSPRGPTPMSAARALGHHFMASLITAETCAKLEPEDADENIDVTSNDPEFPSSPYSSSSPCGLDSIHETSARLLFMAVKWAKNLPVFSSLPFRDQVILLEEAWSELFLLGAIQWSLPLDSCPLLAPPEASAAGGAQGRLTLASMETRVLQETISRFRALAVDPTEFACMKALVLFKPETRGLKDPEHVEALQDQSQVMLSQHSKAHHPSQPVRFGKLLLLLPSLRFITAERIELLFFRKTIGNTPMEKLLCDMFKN
Sequence of Muscarinic acetylcholine receptor M1 (P08482 whole entry): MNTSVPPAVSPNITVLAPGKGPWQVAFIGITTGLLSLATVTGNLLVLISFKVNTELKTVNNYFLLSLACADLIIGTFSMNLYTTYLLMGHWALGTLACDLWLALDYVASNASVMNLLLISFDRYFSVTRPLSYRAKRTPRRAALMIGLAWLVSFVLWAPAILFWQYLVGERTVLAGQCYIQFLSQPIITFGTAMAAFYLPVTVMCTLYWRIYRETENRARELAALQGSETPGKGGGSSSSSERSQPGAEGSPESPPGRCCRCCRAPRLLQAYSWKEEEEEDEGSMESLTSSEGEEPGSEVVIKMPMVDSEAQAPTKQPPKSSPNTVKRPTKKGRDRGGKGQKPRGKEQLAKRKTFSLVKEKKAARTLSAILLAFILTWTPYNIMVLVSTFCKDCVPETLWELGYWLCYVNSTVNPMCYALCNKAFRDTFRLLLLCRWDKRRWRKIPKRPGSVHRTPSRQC
Sequence of Muscarinic acetylcholine receptor M5 (P08912 whole entry): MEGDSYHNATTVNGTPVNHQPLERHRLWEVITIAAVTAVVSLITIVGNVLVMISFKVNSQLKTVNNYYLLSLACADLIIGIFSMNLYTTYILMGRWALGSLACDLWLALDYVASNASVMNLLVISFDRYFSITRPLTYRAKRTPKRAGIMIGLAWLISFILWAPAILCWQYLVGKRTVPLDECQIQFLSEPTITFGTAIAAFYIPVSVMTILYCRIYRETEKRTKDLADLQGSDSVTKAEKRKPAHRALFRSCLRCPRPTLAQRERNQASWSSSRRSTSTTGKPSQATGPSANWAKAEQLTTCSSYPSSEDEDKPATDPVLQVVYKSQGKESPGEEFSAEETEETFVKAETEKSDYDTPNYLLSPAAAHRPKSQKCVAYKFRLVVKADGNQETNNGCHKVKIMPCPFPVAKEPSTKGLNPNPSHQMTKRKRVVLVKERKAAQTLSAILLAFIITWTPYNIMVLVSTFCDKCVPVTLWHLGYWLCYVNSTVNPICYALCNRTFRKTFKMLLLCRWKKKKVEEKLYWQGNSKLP
Sequence of Muscarinic acetylcholine receptor M2 (P08172 whole entry): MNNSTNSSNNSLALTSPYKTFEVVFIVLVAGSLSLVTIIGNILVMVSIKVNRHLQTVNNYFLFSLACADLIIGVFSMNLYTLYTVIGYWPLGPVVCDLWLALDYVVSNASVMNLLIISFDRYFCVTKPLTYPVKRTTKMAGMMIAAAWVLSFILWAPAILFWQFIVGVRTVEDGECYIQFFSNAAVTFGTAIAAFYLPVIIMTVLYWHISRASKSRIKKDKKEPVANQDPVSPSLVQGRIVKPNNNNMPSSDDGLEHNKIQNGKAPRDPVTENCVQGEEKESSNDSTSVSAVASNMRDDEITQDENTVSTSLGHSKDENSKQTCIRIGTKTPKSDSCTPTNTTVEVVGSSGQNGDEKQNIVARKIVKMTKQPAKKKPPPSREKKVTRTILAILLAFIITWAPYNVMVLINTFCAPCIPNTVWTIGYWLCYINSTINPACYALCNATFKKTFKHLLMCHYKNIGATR

SMILES: O=C(CSc1nnc(SCc2ccccc2)s1)N/N=C/c1ccc(Cl)cc1Cl
- CC50 [1]: 38.4 µM (active)

SMILES: CN(C)C1C(=O)C(C(N)=O)C(=O)C2(O)C(=O)C3C(=O)c4c(O)cccc4C(C)(O)C3CC12 (centres undefined)
- EC50 [2]: 0.402 µM (active)

SMILES: CC(C)(C)C(=O)Nc1cc2nn(-c3ccccc3)nc2cc1Cl
- AC50 [3]: 0.495 µM (active)
- IC50 [4]: > 100 µM (inactive)
- IC50 [5]: > 39.8 µM (not active)
- AC50 [6]: 5.16 µM (active)
- IC50 [7]: 0.152 µM (active)
- AC50 [8]: 49.5 µM (active)
- AC50 [9]: > 70 µM (inactive)

SMILES: C=CCN1C=CC(=CC=C(C#N)C#N)C=C1
- IC50 [10]: 72.2 µM (active)
- EC50 [11]: > 100 µM (active)
- IC50 [12]: 10.4 µM (not active)
- IC50 [13]: > 55.7 µM (not active)

SMILES: CCOC(=O)N1CCC(NCCNC(=O)c2ccccc2C)CC1
- EC50 [14]: 360 µM (inconclusive)
- EC50 [15]: 95.7 µM (inconclusive)
- EC50 [16]: 240 µM (inconclusive)
- EC50 [17]: 25.1 µM (inconclusive)
- EC50 [18]: 24.1 µM (inconclusive)

SMILES: CCOC(=O)C1=Nc2ccccc2C1=[N+]=[N-]
- EC50 [19]: 7.83 µM (active)
- IC50 [20]: 21.4 µM (active)
- EC50 [21]: 0.379 µM (active)
- EC50 [22]: 19.9 µM (active)
- EC50 [23]: 2.27 µM (active)

SMILES: O=c1c2c(-c3ccco3)csc2nc(SCc2cn3cccnc3n2)n1-c1ccccc1
- EC50 [24]: 38.5 µM (active)
- IC50 [25]: 49.7 µM (not active)
- EC50 [26]: 13.9 µM (active)
- EC50 [27]: > 120 µM (not active)
- CC50 [28]: > 40 µM (active)

SMILES: CCOC(=O)OCC1OC(C#Cc2ccccc2)C=CC1Oc1cccc(N(C)C)c1 (centres undefined)
- AC50 [29]: 3.98 µM (inconclusive)
